In US20230365571A1, “COMPOUNDS AND COMPOSITIONS AS Sppl2a INHIBITORS” (Novartis AG, priority 2020, published 2023):
pIC50: −log10 of the molar value.

What was measured:
human SPPL2a [1] = biological target: T1, human SPPL2a (Homo sapiens, UniProt Q8TCT8); experiment: Sppl2a TL (translocation) imaging assay in U-2 OS cells; assay type: cell-based; design: expressed in transfected cells; conditions: U-2 OS cells expressing human SPPL2a and EGFP-TNFα(aa1-76) NTF substrate; 24 h
T1 sequence (Q8TCT8 26-520): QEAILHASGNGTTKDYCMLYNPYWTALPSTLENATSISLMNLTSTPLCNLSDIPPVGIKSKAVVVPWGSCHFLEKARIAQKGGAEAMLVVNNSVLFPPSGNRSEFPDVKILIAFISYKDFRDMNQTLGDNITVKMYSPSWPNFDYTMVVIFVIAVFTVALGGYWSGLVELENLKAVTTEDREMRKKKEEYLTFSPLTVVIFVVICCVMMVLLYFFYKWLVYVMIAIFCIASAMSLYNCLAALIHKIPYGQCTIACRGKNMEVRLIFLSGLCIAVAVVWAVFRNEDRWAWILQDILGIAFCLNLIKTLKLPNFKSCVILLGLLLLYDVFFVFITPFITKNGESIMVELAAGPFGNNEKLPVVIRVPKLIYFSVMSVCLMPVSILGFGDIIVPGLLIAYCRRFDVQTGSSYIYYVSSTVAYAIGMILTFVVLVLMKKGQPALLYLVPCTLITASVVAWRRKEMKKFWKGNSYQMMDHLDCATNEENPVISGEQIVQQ
Summary of the method: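 U-2 OS cells stably expressing human SPPL2a plus doxycycline-induced EGFP-TNFα(aa1-76) NTF, treated 24 h at 37 °C with inhibitor (100 μM–1 nM, 11 points, 0.9% DMSO, 5 μg/mL doxycycline). Imaging of nuclear-minus-cytoplasmic EGFP intensity; % inhibition versus 0.5 μM LY-411,575 and DMSO, IC50 by nonlinear regression; CC50 from cell count.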

human SPPL2a [2] = biological target: T1, human SPPL2a; experiment: Sppl2a RGA (reporter gene assay) in HEK293 cells; assay type: cell-based; design: expressed in transfected cells; host or cells: HEK293 (transient); conditions: NT-TNF-VP16-Gal4 substrate, Gal4-luciferase reporter, 24 h
Summary of the method: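 Cleavage of a membrane-bound TNF N-terminal–VP16-Gal4 substrate drives Gal4-luciferase expression in transiently transfected HEK293 cells also expressing human SPPL2a. Compounds incubated 24 h, 37 °C, 5% CO2; luminescence read, normalized and plotted against concentration for IC50.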

`O=C(NC[C@H](C(=O)N[C@@H]1C(=O)N2CCCN2C(=O)c2ccccc21)C(F)(F)F)c1sc(-c2ccc(C(F)(F)F)nc2)nc1Cl` [Example 40, 4-Chloro-N-((R)-2-(((S)-5,11-dioxo-2,3,10,11-tetrahydro-1H,5H-benzo[d]pyrazolo [1,2-a][1,2]diazepin-10-yl)carbamoyl)-3,3,3-trifluoropropyl)-2-(6-(trifluoromethyl)pyridin-3-yl)thiazole-5-carboxamide] showed a pIC50 (human SPPL2a [1]) of 7.24 and a pIC50 (human SPPL2a [2]) of 7.38.

`CC[C@H](CNC(=O)c1ccnn1C(F)F)C(=O)N[C@@H]1C(=O)N2CC3(CC3)CN2C(=O)c2ccccc21` [Example 56, 1-(Difluoromethyl)-N-((R)-2-(((S)-5,11-dioxo-10,11-dihydro-1H,3H,5H-spiro[benzo[d]pyr-azolo[1,2-a][1,2]diazepine-2,1′-cyclopropan]-10-yl)carbamoyl)butyl)-1H-pyrazole-5-carboxamide] gave a pIC50 (human SPPL2a [1]) of 6.72 and a pIC50 (human SPPL2a [2]) of 7.00.

`Cc1cccc2nc(C[C@@H](C)C(=O)N[C@@H]3C(=O)N4CCCN4Cc4ccccc43)[nH]c12` [Example 112, (R)-2-methyl-3-(7-methyl-1H-benzo[d]imidazol-2-yl)-N-((S)-11-oxo-2,3,10,11-tetrahydro-1H,5H-benzo[d]pyrazolo[1,2-a][1,2]diazepin-10-yl)propanamide] was tested, and the pIC50 (human SPPL2a [1]) was 6.86 and the pIC50 (human SPPL2a [2]) was 7.55.

In the case of `C[C@@H](CF)NC(=O)c1cc(NC(=O)C[C@H](C(=O)N[C@@H]2C(=O)N3CCCN3Cc3ccccc32)C2CC2)n(C)n1` [Example 78, (S)-2-Cyclopropyl-N^4-(3-(((S)-1-fluoropropan-2-yl)carbamoyl)-1-methyl-1H-pyrazol-5-yl)-N^1-((S)-11-oxo-2,3,10,11-tetrahydro-1H,5H-benzo[d]pyrazolo [1,2-a][1,2]diazepin-10-yl)succinamide], the pIC50 (human SPPL2a [1]) was 8.22 and the pIC50 (human SPPL2a [2]) was 7.37.

With `CC[C@H](CNC(=O)c1scnc1C)C(=O)N[C@@H]1C(=O)N2CCCN2Cc2ccccc21` [Example 29, 4-Methyl-N-((R)-2-(((S)-11-oxo-2,3,10,11-tetrahydro-1H,5H-benzo[d]pyrazolo [1,2-a][1,2]diazepin-10-yl)carbamoyl)butyl) thiazole-5-carboxamide] the pIC50 (human SPPL2a [1]) was 7.54 and the pIC50 (human SPPL2a [2]) was 7.08.

Work on `O=C(C[C@H](C(=O)N[C@@H]1C(=O)N2CC3(CC3)CN2C(=O)c2ccccc21)C1CC1)Nc1sc(-c2ccc(C(F)(F)F)nc2)nc1Cl` [Example 106, (S)-N^4-(4-Chloro-2-(6-(trifluoromethyl)pyridin-3-yl)thiazol-5-yl)-2-cyclopropyl-N^1-((S)-5,11-dioxo-10,11-dihydro-1H,3H,5H-spiro[benzo[d]pyr-azolo[1,2-a][1,2]diazepine-2,1′-cyclopropan]-10-yl)succinamide] yielded a pIC50 (human SPPL2a [1]) of 8.00 and a pIC50 (human SPPL2a [2]) of 8.10.

In the case of `CC[C@H](CNC(=O)c1sc(C2CC2)nc1C(F)(F)F)C(=O)N[C@@H]1C(=O)N2CC3(CC3)CN2C(=O)c2ccccc21` [Example 59, 2-Cyclopropyl-N-((R)-2-(((S)-5,11-dioxo-10,11-dihydro-1H,3H,5H-spiro[benzo[d]pyr-azolo[1,2-a][1,2]diazepine-2,1′-cyclopropan]-10-yl)carbamoyl)butyl)-4-(trifluoromethyl) thiazole-5-carboxamide], the pIC50 (human SPPL2a [1]) was 6.26 and the pIC50 (human SPPL2a [2]) was 6.18.

`CC[C@H](CNC(=O)c1sc(-c2ccc(OC)nc2)nc1Cl)C(=O)N[C@@H]1C(=O)N2CCCN2C(=O)c2ccccc21` [Example 34, 4-Chloro-N-((R)-2-(((S)-5,11-dioxo-2,3,10,11-tetrahydro-1H,5H-benzo[d]pyrazolo [1,2-a][1,2]diazepin-10-yl)carbamoyl)butyl)-2-(6-methoxypyridin-3-yl)thiazole-5-carboxamide] gave a pIC50 (human SPPL2a [1]) of 7.37 and a pIC50 (human SPPL2a [2]) of 7.30.

With `CC[C@H](CNC(=O)c1oncc1C)C(=O)N[C@@H]1C(=O)N2CCCN2Cc2ccccc21` [Example 51, 4-Methyl-N-((R)-2-(((S)-11-oxo-2,3,10,11-tetrahydro-1H,5H-benzo[d]pyrazolo [1,2-a][1,2]diazepin-10-yl)carbamoyl)butyl) isoxazole-5-carboxamide] the pIC50 (human SPPL2a [1]) was 7.00 and the pIC50 (human SPPL2a [2]) was 7.28.

Work on `C[C@H](CC(=O)Nc1sc(-c2cnn(C3COC3)c2)nc1Cl)C(=O)N[C@@H]1C(=O)N2CCCN2Cc2ccccc21` [Example 95, (R)-N^4-(4-Chloro-2-(1-(oxetan-3-yl)-1H-pyrazol-4-yl)thiazol-5-yl)-2-methyl-N^1-((S)-11-oxo-2,3,10,11-tetrahydro-1H,5H-benzo[d]pyrazolo [1,2-a][1,2]diazepin-10-yl)succinamide] yielded a pIC50 (human SPPL2a [1]) of 7.92 and a pIC50 (human SPPL2a [2]) of 7.64.

With `Cc1cncc(-c2cc(NC(=O)C[C@H](C(=O)N[C@@H]3C(=O)N4CCCN4Cc4ccccc43)C3CC3)n(C)n2)c1` [Example 75, (S)-2 Cyclopropyl-N^4-(1-methyl-3-(5-methylpyridin-3-yl)-1H-pyrazol-5-yl)-N^1-((S)-11-oxo-2,3,10,11-tetrahydro-1H,5H-benzo[d]pyrazolo [1,2-a][1,2]diazepin-10-yl)succinamide] the pIC50 (human SPPL2a [1]) was 8.30 and the pIC50 (human SPPL2a [2]) was 8.40.

`CCc1nnsc1C(=O)NC[C@@H](CC)C(=O)N[C@@H]1C(=O)N2CC3(CC3)CN2C(=O)c2ccccc21` [Example 36, N-((R)-2-(((S)-5,11-Dioxo-10,11-dihydro-1H,3H,5H-spiro[benzo[d]pyr-azolo[1,2-a][1,2]diazepine-2,1′-cyclopropan]-10-yl)carbamoyl)butyl)-4-ethyl-1,2,3-thiadiazole-5-carboxamide] gave a pIC50 (human SPPL2a [1]) of 7.35 and a pIC50 (human SPPL2a [2]) of 7.47.

For `C[C@H](Cc1nc2cccc(C(F)(F)F)c2[nH]1)C(=O)N[C@@H]1C(=O)N2CCCN2Cc2ccccc21` [Example 114, (R)-2-methyl-N-((S)-11-oxo-2,3,10,11-tetrahydro-1H,5H-benzo[d]pyrazolo[1,2-a][1,2]diazepin-10-yl)-3-(7-(trifluoromethyl)-1H-benzo[d]imidazol-2-yl)propanamide], the pIC50 (human SPPL2a [1]) was 6.26 and the pIC50 (human SPPL2a [2]) was 7.20.

Work on `CC[C@H](CNC(=O)c1sc(C2=CCCC2)nc1Cl)C(=O)N[C@@H]1C(=O)N2CCCN2C(=O)c2ccccc21` [Example 28, 4-Chloro-2-(cyclopent-1-en-1-yl)-N-((R)-2-(((S)-5,11-dioxo-2,3,10,11-tetrahydro-1H,5H-benzo[d]pyrazolo [1,2-a][1,2]diazepin-10-yl)carbamoyl)butyl) thiazole-5-carboxamide] yielded a pIC50 (human SPPL2a [1]) of 7.55 and a pIC50 (human SPPL2a [2]) of 7.06.

For `CC[C@H](CNC(=O)c1sc(-c2ccc(C(F)(F)F)nc2)nc1Cl)C(=O)N[C@@H]1C(=O)N2CCCN2Cc2ccccc21` [Example 15, 4-Chloro-N-((R)-2-(((S)-11-oxo-2,3,10,11-tetrahydro-1H,5H-benzo[d]pyrazolo [1,2-a][1,2]diazepin-10-yl)carbamoyl)butyl)-2-(6-(trifluoromethyl)pyridin-3-yl)thiazole-5-carboxamide], the pIC50 (human SPPL2a [1]) was 7.96 and the pIC50 (human SPPL2a [2]) was 8.10.

`C[C@H](Cc1nc2ccccc2[nH]1)C(=O)N[C@@H]1C(=O)N2CCCN2Cc2ccccc21` [Example 111, (R)-3-(1H-benzo[d]imidazol-2-yl)-2-methyl-N—((S)-11-oxo-2,3,10,11-tetrahydro-1H,5H-benzo[d]pyrazolo[1,2-a][1,2]diazepin-10-yl)propanamide] was tested, and the pIC50 (human SPPL2a [1]) was 6.18 and the pIC50 (human SPPL2a [2]) was 7.11.

With `Cc1nc(-c2cncc(F)c2)sc1NC(=O)C[C@@H](C)C(=O)N[C@@H]1C(=O)N2CCCN2Cc2ccccc21` [Example 79, (R)-N^4-(2-(5-fluoropyridin-3-yl)-4-methylthiazol-5-yl)-2-methyl-N^1-((S)-11-oxo-2,3,10,11-tetrahydro-1H,5H-benzo[d]pyrazolo [1,2-a][1,2]diazepin-10-yl)succinamide] the pIC50 (human SPPL2a [1]) was 8.15 and the pIC50 (human SPPL2a [2]) was 8.00.

With `O=C(NC[C@H](C(=O)N[C@@H]1C(=O)N2CCCN2Cc2c(F)cccc21)C1CC1)c1sc(C2CC2)nc1Cl` [Example 54, 4-Chloro-2-cyclopropyl-N-((R)-2-cyclopropyl-3-(((S)-6-fluoro-11-oxo-2,3,10,11-tetrahydro-1H,5H-benzo[d]pyrazolo [1,2-a][1,2]diazepin-10-yl)amino)-3-oxopropyl)thiazole-5-carboxamide] the pIC50 (human SPPL2a [1]) was 6.89 and the pIC50 (human SPPL2a [2]) was 7.32.

For `C[C@H](CC(=O)Nc1cc(-c2ccc(F)cn2)nn1C)C(=O)N[C@@H]1C(=O)N2CCCN2Cc2ccccc21` [Example 87, (R)-N^4-(3-(5-Fluoropyridin-2-yl)-1-methyl-1H-pyrazol-5-yl)-2-methyl-N^1-((S)-11-oxo-2,3,10,11-tetrahydro-1H,5H-benzo[d]pyrazolo [1,2-a][1,2]diazepin-10-yl)succinamide], the pIC50 (human SPPL2a [1]) was 8.00 and the pIC50 (human SPPL2a [2]) was 8.00.
